Our source for the TGI values is PubChem BioAssay (NCI).

Each structure is given as a SMILES string.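 Five compound concentrations were applied to cells in 96-well plates for 48 hours; endpoints were derived by simple linear interpolation of the resulting dose-response curve. TGI: concentration producing complete growth inhibition.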

Among the test systems are HL-60(TB) leukemia; NCI-H460 lung; RPMI-8226 leukemia; NCI/ADR-RES ovarian; A549 NSCLC; PC-3 prostate; TK-10 renal; COLO 205 colon; MOLT-4 leukemia; DU-145 prostate; NCI-H23 lung; OVCAR-8 ovarian; T-47D breast; SK-MEL-28 melanoma; HCC-2998 colon; MALME-3M melanoma; SF-268 CNS; HCT-15 colon; CAKI-1 renal; UO-31 renal.
What all share (experiment): inhibition of tumour cell growth, NCI panel, 48 h

For the molecule `Cc1c(C)c(C)c(CSC(=N)N)c(C)c1C`, the TGI came out at 27.6 µM with HL-60(TB) leukemia; 26.8 µM in the assay with NCI-H460 lung; 38.9 µM with RPMI-8226 leukemia; 30.6 µM in the assay on NCI/ADR-RES ovarian; 30.9 µM with A549 NSCLC; 24.6 µM in the assay on PC-3 prostate. Besides, the TGI stood at 28.4 µM with TK-10 renal; 28.1 µM in the assay with COLO 205 colon; 33 µM with MOLT-4 leukemia; 31.6 µM in the assay with DU-145 prostate; 33.4 µM in the assay with NCI-H23 lung; 58.2 µM in the assay with OVCAR-8 ovarian. Also, the TGI is 36.6 µM with T-47D breast; 28.8 µM in the assay with SK-MEL-28 melanoma; 27.8 µM in the assay on HCC-2998 colon; 32.9 µM in the assay with MALME-3M melanoma; 36.2 µM in the assay with SF-268 CNS; 31.3 µM with HCT-15 colon. For the same molecule, the TGI with CAKI-1 renal amounted to 25.8 µM; in the assay with UO-31 renal, 20.2 µM.
Take `CCNC(=O)Cc1nc2c(=O)[nH]cnc2n1C1OC(CO)C(O)C1O` (stereo not given): the TGI with HL-60(TB) leukemia, with NCI-H460 lung, with RPMI-8226 leukemia, with NCI/ADR-RES ovarian, in the assay with A549 NSCLC and with PC-3 prostate was over 100 µM in each case. Moreover, the TGI with TK-10 renal, in the assay with COLO 205 colon, in the assay on MOLT-4 leukemia, in the assay with DU-145 prostate, in the assay on NCI-H23 lung and in the assay on OVCAR-8 ovarian was over 100 µM each time. The TGI in the assay on T-47D breast, in the assay with SK-MEL-28 melanoma, in the assay with HCC-2998 colon, in the assay with MALME-3M melanoma, with SF-268 CNS and in the assay on HCT-15 colon was over 100 µM throughout. Further, the TGI with CAKI-1 renal and with UO-31 renal was over 100 µM in each case.
Regarding `COc1cc(C2c3cc4c(cc3OC(O)C2C)OCO4)cc(OC)c1O` (stereo not given), the TGI is 20.2 µM in the assay with HL-60(TB) leukemia; over 70.5 µM with NCI-H460 lung; over 100 µM with RPMI-8226 leukemia; 23.4 µM in the assay with NCI/ADR-RES ovarian; over 100 µM in the assay on A549 NSCLC; over 100 µM with PC-3 prostate. Further, the TGI with TK-10 renal was 57.4 µM; in the assay with COLO 205 colon, 45.8 µM; with MOLT-4 leukemia it was over 100 µM; in the assay on DU-145 prostate, over 100 µM; in the assay on NCI-H23 lung it was over 100 µM; with OVCAR-8 ovarian, over 100 µM. The TGI in the assay with T-47D breast was over 68.6 µM; in the assay on SK-MEL-28 melanoma it was over 91.6 µM; in the assay on HCC-2998 colon, 49.5 µM; in the assay with MALME-3M melanoma, 29.4 µM; with SF-268 CNS, over 100 µM; with HCT-15 colon it was over 57.4 µM. The TGI with CAKI-1 renal was over 100 µM; with UO-31 renal it was over 96.5 µM.
Consider `O=C1/C(=C/c2ccc(O)cc2)CCc2ccccc21`, for which the TGI is 36.7 µM in the assay with HL-60(TB) leukemia; 72.4 µM in the assay on NCI-H460 lung; 34.9 µM with RPMI-8226 leukemia; 44.8 µM with NCI/ADR-RES ovarian; 64.1 µM in the assay with A549 NSCLC; 39.2 µM in the assay with PC-3 prostate. Besides, the TGI in the assay on TK-10 renal was over 95.9 µM; in the assay with COLO 205 colon, 40.5 µM; with MOLT-4 leukemia, 12.4 µM; in the assay on DU-145 prostate, 64.9 µM; with NCI-H23 lung, 55.2 µM; in the assay with OVCAR-8 ovarian, 73.5 µM. Moreover, the TGI is over 100 µM in the assay on T-47D breast; 37 µM in the assay with SK-MEL-28 melanoma; 43.6 µM in the assay on HCC-2998 colon; 42.9 µM with MALME-3M melanoma; 37.6 µM in the assay with SF-268 CNS; 40.4 µM in the assay with HCT-15 colon. In addition, the results for the TGI in the assay with CAKI-1 renal and in the assay on UO-31 renal were 91.5 µM and 47.9 µM, respectively.
With `Clc1ccc(-c2cc(-c3nc4ccccc4[nH]3)no2)cc1`, the TGI came to 37.2 µM in the assay with HL-60(TB) leukemia; 32.6 µM in the assay with NCI-H460 lung; 73.1 µM in the assay on RPMI-8226 leukemia; 73.5 µM with NCI/ADR-RES ovarian; 36 µM in the assay on A549 NSCLC; 48.4 µM in the assay on PC-3 prostate. Besides, the TGI turned out to be 40 µM in the assay on TK-10 renal; 41.8 µM with COLO 205 colon; 47.9 µM in the assay on MOLT-4 leukemia; 24.6 µM in the assay with DU-145 prostate; 42.3 µM with NCI-H23 lung; 67.4 µM in the assay with OVCAR-8 ovarian. For the same molecule, the TGI in the assay with T-47D breast worked out at 37.7 µM; in the assay with SK-MEL-28 melanoma it was 40.5 µM; with HCC-2998 colon, 33.5 µM; in the assay with MALME-3M melanoma, 37.5 µM; in the assay with SF-268 CNS it was 45.9 µM; in the assay with HCT-15 colon it was 45 µM. Also, the TGI with CAKI-1 renal and in the assay with UO-31 renal was 34.7 µM throughout.
`Clc1cccc(Cl)c1C1SCc2nc3ncccc3n21` (stereo not given): the TGI in the assay on HL-60(TB) leukemia, with NCI-H460 lung, with RPMI-8226 leukemia, in the assay with NCI/ADR-RES ovarian, with A549 NSCLC and with PC-3 prostate was over 100 µM in each case. For the same molecule, the TGI in the assay on TK-10 renal, in the assay with COLO 205 colon, with MOLT-4 leukemia, in the assay on DU-145 prostate, in the assay on NCI-H23 lung and in the assay with OVCAR-8 ovarian was over 100 µM each time. The TGI in the assay on T-47D breast, in the assay on SK-MEL-28 melanoma, with HCC-2998 colon, in the assay with MALME-3M melanoma, in the assay with SF-268 CNS and in the assay with HCT-15 colon was over 100 µM throughout. The TGI in the assay with CAKI-1 renal and in the assay on UO-31 renal was over 100 µM each time.
On to `Nc1nc(Cl)cc(NCC2(CO)CC(Cc3ccccc3)C2)n1` (stereo not given), for which the TGI in the assay with HL-60(TB) leukemia was over 46.4 µM; in the assay with NCI-H460 lung, over 100 µM; with RPMI-8226 leukemia, over 62.9 µM; in the assay with NCI/ADR-RES ovarian it was 65.5 µM; with A549 NSCLC it was over 100 µM; with PC-3 prostate, over 90.8 µM. Besides, the TGI in the assay on TK-10 renal is over 96.5 µM; with COLO 205 colon it was over 59.6 µM; with MOLT-4 leukemia, over 71.4 µM; in the assay on DU-145 prostate, over 100 µM; with NCI-H23 lung, over 100 µM; in the assay on OVCAR-8 ovarian, over 100 µM. In addition, the TGI is over 65.4 µM in the assay with T-47D breast; over 100 µM in the assay with SK-MEL-28 melanoma; over 88.6 µM in the assay on HCC-2998 colon; over 100 µM in the assay on MALME-3M melanoma; over 31.6 µM in the assay with SF-268 CNS; over 100 µM with HCT-15 colon. Further, the TGI in the assay with CAKI-1 renal and in the assay on UO-31 renal was over 100 µM throughout.
